The nature of assay [1]: Inhibition of beta-lactamase TEM-1.
A short description of assay [2]: Inhibition of beta-lactamase PDC-3.

As usually defined, the IC50 is the concentration at which inhibition is half-maximal. Low readings indicate inhibition by little substance, high ones a need for much substance. For `CC1(C)[C@H](C(=O)O)N2C(=O)[C@@H](CCCO)[C@H]2S1(=O)=O`, in assay [1], the IC50 was > 50 µM.

Turning to `COc1cccc(OC)c1C(=O)N[C@@H]1C(=O)N2[C@@H](C(=O)O)C(C)(C)S(=O)(=O)[C@H]12`, the IC50 in assay [1] is > 50 µM.

In the case of `CC(C)(C)C(=O)NC[C@@H]1C(=O)N2[C@@H](C(=O)O)C(C)(C)S(=O)(=O)[C@H]12`, the IC50 in assay [1] is > 50 µM.

On to `CC1(C)[C@H](C(=O)O)N2C(=O)[C@@H](CNC(=O)Cc3ccccc3)[C@H]2S1(=O)=O`, for which, in assay [1], the IC50 was > 50 µM.

As for `CC1(C)[C@H](C(=O)O)N2C(=O)[C@@H](CN)[C@H]2S1(=O)=O`, the IC50 in assay [1] is 0.45 µM; in assay [2], > 50 µM.

Turning to `C=CC[C@@H]1C(=O)N2[C@@H](C(=O)OC(c3ccccc3)c3ccccc3)C(C)(C)S(=O)(=O)[C@H]12`, the 50% inhibitory concentration (IC50) in assay [1] is 35 µM; in assay [2], 1.2 µM.

Turning to `CC1(C)[C@H](C(=O)O)N2C(=O)[C@@H](NS(=O)(=O)C(F)(F)F)[C@H]2S1(=O)=O`, the concentration for half-maximal inhibition (IC50) in assay [1] was > 50 µM.

For `C=CCOC(=O)NC[C@@H]1C(=O)N2[C@@H](C(=O)O)C(C)(C)S(=O)(=O)[C@H]12`, in assay [1], the IC50 is > 50 µM.

As to `CC1(C)[C@H](C(=O)O)N2C(=O)[C@@H](NC(=O)Cc3ccccc3)[C@H]2S1(=O)=O`, the 50% inhibitory concentration (IC50) in assay [1] and in assay [2] was > 50 µM each time.

Regarding `CC1(C)[C@H](C(=O)O)N2C(=O)[C@@H](CCO)[C@H]2S1(=O)=O`, the IC50 in assay [1] was > 50 µM.

For the compound `Cc1onc(-c2ccccc2)c1C(=O)N[C@@H]1C(=O)N2[C@@H](C(=O)O)C(C)(C)S(=O)(=O)[C@H]12`, the IC50 in assay [1] is > 50 µM.

`CC1(C)[C@H](C(=O)O)N2C(=O)[C@@H]([C@@H](O)C(=O)N3CCCC3)[C@H]2S1(=O)=O`: in assay [1], the concentration for half-maximal inhibition (IC50) came to 0.18 µM.

For the compound `CC1(C)[C@H](C(=O)O)N2C(=O)[C@@H]([C@@H](O)CN)[C@H]2S1(=O)=O`, the IC50 in assay [1] and in assay [2] was 1.2 µM in each case.

As for `CC1(C)[C@H](C(=O)O)N2C(=O)[C@@H](NCC(=O)O)[C@H]2S1(=O)=O`, in assay [1], the IC50 is > 50 µM.

In the case of `CC1(C)[C@H](C(=O)O)N2C(=O)[C@@H](CC(O)O)[C@H]2S1(=O)=O`, the IC50 in assay [1] and in assay [2] was > 50 µM throughout.

Turning to `CC1(C)[C@H](C(=O)O)N2C(=O)[C@@H](CC(=O)O)[C@H]2S1(=O)=O`, the IC50 in assay [1] is > 50 µM.

With `CC1(C)[C@H](C(=O)O)N2C(=O)[C@@H](N)[C@H]2S1(=O)=O`, the half-inhibitory concentration (IC50) in assay [1] is 8.4 µM; in assay [2], > 50 µM.

Consider `CC1(C)[C@H](C(=O)O)N2C(=O)[C@@H](CC(=O)NO)[C@H]2S1(=O)=O`, for which the IC50 in assay [1] and in assay [2] was > 50 µM each time.

The compound `CC1(C)[C@H](C(=O)O)N2C(=O)[C@@H](CNS(=O)(=O)C(F)(F)F)[C@H]2S1(=O)=O` registered an IC50 in assay [1] of 6.1 µM.

In turn, `CC1(C)[C@H](C(=O)O)N2C(=O)C[C@H]2S1(=O)=O` [SULBACTAM] came in with a half-maximal inhibitory concentration (IC50) in assay [2] of 4.3 µM.

The record behind these values is ChEMBL document CHEMBL1641562, “Modifications of the C6-substituent of penicillin sulfones with the goal of improving inhibitor recognition and efficacy” (Bioorg Med Chem Lett, 2011).
